# In patent publication US20130272963A1, “Cholesterol Efflux Assay Probe Formulations, Methods of Making and Using” (THE OHIO STATE UNIVERSITY, priority 2012, published 2013):
# Assay: Drug loading of CHEAP formulation
# Conditions: hydrophobic model drugs loaded into CHEAP
# Protocol: The intracellular delivery of hydrophobic drugs was conducted using a CHEAP formulation vehicle. Loading, as well as stability, of the drug-loaded CHEAP formulations was investigated on three different hydrophobic drugs. Rosiglitazone (RSG), Paclitaxel (PAX), and Tamoxifen (TAM) were used as model drugs for loading (FIG. 6A).
row,binding affinity towards the CHEAP formulation,Structure (SMILES)
1,high binding affinity,"CC/C(=C(\c1ccccc1)c1ccc(OCCN(C)C)cc1)c1ccccc1 [TAM, Tamoxifen]"
2,high binding affinity,"CC(=O)O[C@H]1C(=O)[C@@]2(C)[C@H]([C@H](OC(=O)c3ccccc3)[C@]3(O)C[C@H](OC(=O)[C@H](O)[C@@H](NC(=O)c4ccccc4)c4ccccc4)C(C)=C1C3(C)C)[C@]1(OC(C)=O)CO[C@@H]1C[C@@H]2O [PAX, Paclitaxel]"
